The text below walks through data of patent publication US8236339B2, “Therapeutic delivery of carbon monoxide” (priority 2001, dated 2012).

Data set [1] has as its system deoxymyoglobin (deoxy-Mb). Nature of the data set: Myoglobin assay: conversion of deoxy-Mb to MbCO on direct addition of metal carbonyl. The settings on record: for MbCO formation / CO release when added directly to deoxy-Mb solution: direct addition to myoglobin solution (66 μM), no light. It counts as biochemical, horse. How it is done:
The release of CO from metal carbonyl complexes was assessed spectrophotometrically by measuring the conversion of deoxymyoglobin (deoxy-Mb) to carbonmonoxy myoglobin (MbCO). MbCO has a distinctive absorption spectrum between 500 and 600 nm, and changes at 540 nm were used to quantify the amount of CO liberated. Myoglobin solutions (66 μM final concentration) were prepared freshly by dissolving the protein in 0.04 M phosphate buffer (pH 6.8). Sodium dithionite (0.1%) was added to convert myoglobin to deoxy-Mb prior to each reading. All the spectra were measured using a Helios a spectrophotometer.
Various metal carbonyl complexes were tested for their ability to elicit MbCO formation when added directly to a deoxy-Mb solution. To different extents, [Ru(CO)3Cl2]2, [Ru(CO)2(DMSO)2Cl2], [Ru(CO)3Cl2(cytosine)] and […] all released CO when added directly to the Mb solution.
The metal carbonyl complex was solubilized in DMSO (9.7 mM stock solution), aliquots of 2 to 32 μl were added directly to 1 ml of deoxy-Mb solutions (66 μM) and absorption spectrum determined immediately after mixing the samples by inversion.

The test system of data set [2] is aortic rings pre-contracted with phenylephrine. Nature of the data set: Relaxation of isolated aortic rings pre-contracted with phenylephrine. On the set-up: species or system rat. The settings on record: for vasodilatory effect on pre-contracted aortic rings (in words): consecutive additions; for % Relaxation, 1st addition / % Relaxation, 2nd addition / % Relaxation, 3rd addition: cumulative doses, phenylephrine 3 μM. How it is done: Transverse ring sections of thoracic aorta were isolated from male Lewis rats and suspended under a 2 g tension in an organ bath containing oxygenated Krebs-Henseleit buffer at 37° C. as previously described (23). The relaxation response to cumulative doses of metal carbonyl (dissolved in DMSO—see section 2) was assessed in aortic rings pre-contracted with phenylephrine (3 μM). Control rings were similarly treated by adding equal doses of DMSO (vehicle) to the organ bath.

The nature of data set [3]: L-NAME-induced increase in mean arterial pressure in anaesthetised Lewis rats. Particulars: L-NAME 30 μmol/kg i.v.; [Ru(CO)3Cl2]2 60 μmol/kg i.v. 1 h before; hemin 75 μmol/kg i.p. 24 h before; SnPPIX 40 μmol/kg i.p. It counts as in vivo, rat. How it is done: Lewis rats (280-350 g) were anaesthetised by intramuscular injection of 1 ml/kg Hypnorm (fentanyl 0.315 mg/ml and fluanisone 10 mg/ml) followed 5 min later by an intraperitoneal injection of 5 mg/kg diazepam. Specially designed femoral artery and venous catheters were then surgically implanted as previously described (40). The arterial cannula was connected to a Grass pressure transducer and blood pressure monitored continuously using a polygraph recorder. Experiments were conducted on anaesthetized animals and recordings were made within 30 min of the surgical procedure.
Control rats (vehicle-treated) and animals that were pre-treated with hemin (75 μmol/kg, i.p) 24 h prior to blood pressure monitoring were then administered with an intravenous injection of 30 μmol/Kg L-NAME to elicit an increase in mean arterial pressure. The extent of blood pressure increase by L-NAME was also monitored over time in hemin-treated animals that received SnPPIX (40 μmol/kg, i.p.) and in control rats previously injected with [Ru(CO)3Cl2]2 (60 μmol/kg, i.v.). In these two groups, SnPPIX or [Ru(CO)3Cl2]2 were administered to animals 1 h prior to L-NAME injection.

The subject of data set [4] is isolated rat hearts. Particulars: for effect on L-NAME-mediated vasoconstriction / rise in CPP: L-NAME 25 μM perfusion. How it is done:
Langendorff heart preparations were performed using male Lewis rats (300-350 g) as previously described by our group (35). […] (pH 7.4). Coronary perfusion pressure (CPP), a parameter indicative of coronary vessel contractility, was continuously measured by a pressure transducer connected to the aortic cannula and data analyzed with an Acknowledge software (BIOPAC System Inc.).
Hearts removed either from control rats (vehicle-treated) or from animals that were pre-treated with the heme oxygenase-1 inducer hemin (75 μmol/kg, i.p.) the day before, were initially equilibrated for 20 min on the Langendorff apparatus and then perfused with L-NAME (25 μM final concentration) to elicit vasoconstriction. The extent of CPP increase by L-NAME was also monitored over time in hemin-treated animals that received a heme oxygenase inhibitor (SnPPIX, 40 μmol/kg) 1 h prior to heart excision and in control hearts that were perfused with buffer supplemented with [Mn2(CO)10] (13 μM final concentration). Since [Mn2(CO)10] releases CO only by photodissociation, Krebs buffer containing [Mn2(CO)10] was exposed to a cold light source immediately before entering the aortic cannula.

The test system of data set [5] is Rat vascular smooth muscle cells. Nature of the data set: Cell viability of vascular smooth muscle cells (colorimetric assay). It is filed as cell-based. How it is done:
Rat vascular smooth muscle cells were obtained from the Coriell Cell Repository (Camden, N.J., USA) and grown in Dulbecco's […] (MEM) supplemented with 20% foetal calf serum, 2×MEM vitamins, 2×MEM non-essential and essential amino acids, penicillin (100 units/ml) and streptomycin (0.1 mg/ml). Confluent cells were treated with different concentrations of metal carbonyl (introduced as DMSO solution—see section B) for various times and cell viability was assessed using a colorimetric assay kit from Promega (Madison, Wis., USA) as previously described (47) after 3 or 24 h incubation, or after 3 h exposure to the agents followed by 21 h incubation in complete media. Results are expressed as the mean±s.e.m. of 6 independent experiments and differences were considered statistically significant at P<0.05 (*).

The nature of data set [6]: Systemic blood pressure and heart rate in anaesthetised Sprague-Dawley rats. It is filed as in vivo, rat. The settings on record: for HR, 60 μmol.kg^−1 / MAP, 60 μmol.kg^−1: directly after i.v. bolus 60 μmol/kg (cumulative 100); for HR, Baseline / MAP, Baseline: just before infusion of the compound. How it is done:
Adult male Sprague-Dawley rats (280-350 g, 8-10 weeks of age) were bred in-house at the Northwick Park Institute for Medical Research (Harrow, UK). Rats were housed in groups of 3 in cages under a 12 h cycle of day/night, with free access to drinking water and fed ad libitum. All surgical procedures were performed in compliance with U.K. Home Office regulations. Rats were anaesthetised in a polycarbonate chamber in a stream of Enflurane™ (Abbot, UK) in oxygen before being transferred onto a mask and continuously supplied with Enflurane™ throughout the experiment with an anaesthetic machine (Aimed, UK). During the surgical procedure the rats were kept at a constant body temperature of 37° C. using a heat pad positioned underneath the operating surface. Specially designed femoral artery and venous catheters were then surgically implanted as previously described (see ref. 40). The catheter in the artery was connected via a luer connector and a three-way tap to a pressure transducer (Gould model P23ID, Statham, USA) for continuous mean arterial pressure (MAP) and heart rate (HR) monitoring. A purpose-built tail-cuff pressure transducer (ADInstruments, UK) was also placed on the tail of the rat and pressure transducer and tail cuff were connected to a polygraph recorder (Grass, Model 7D, Astra-med, UK) pre-calibrated in millimeters of mercury (mmHg). An analogue output provided data for a computer-based data acquisition system (PowerLab™, ADInstruments, UK). The computer-based system was set to record mean arterial pressure (MAP), in mmHg, and heart rate (HR), in beats/min (bpm), for the duration of the experiment. […] Once a stable pressure had been reached, each catheter was flushed with saline containing heparin and no further changes were made to the anaesthetic supply. Ru(CO)3Cl(glycinato) (CO-RM-3) was prepared in stock solutions of 20, 60 and 120 μmoles·ml^−1 by solubilizing the compound in saline. […] CO-RM-3 (or the negative control) was then infused into the animal via the femoral vein catheter as a bolus so that the final concentration infused was 10, 30 or 60 μmoles·kg^−1 body weight. Throughout the experiment MAP and HR were continuously recorded and monitored. Although concentrations of 10, 30 and 60 μmoles·kg^−1 were infused into each animal, the resulting concentrations in the animal were cumulative. Therefore, the final concentration attained in the animal was 10, 40 and 100 μmoles·kg^−1, respectively.
The results are presented in Table 2, where the data shown represents samples taken at baseline (just before infusion of the compound) and directly after administration of 10, 30 and 60 μmoles·kg^−1 of the compound. All data are mean i SEM. n=3 independent experiments. *P<0.05 vs. baseline.

Where [7] appears, read: directly after i.v. bolus 10 μmol/kg.
[8] abbreviates: directly after i.v. bolus 30 μmol/kg (cumulative 40).

“Also recorded” adds a separate entry of the source.

As to [Fe(SPh)2(2,2′-bipyridine)(CO)2], the “MbCO formation / CO release when added directly to deoxy-Mb solution” value (“MbCO formation / CO release” for short) in data set [1] was “did not release any detectable CO to myoglobin; also recorded: No MbCO was detected”. Besides, in data set [2], the “vasodilatory effect on pre-contracted aortic rings (in words)” value (from here on “vasodilatory effect”) is given as “very effective in promoting vasorelaxation”; the “% Relaxation, 1st addition” value was 50.8%; the “% Relaxation, 2nd addition” value turned out to be 60.5%; the “% Relaxation, 3rd addition” value worked out at 75%.
As for `C=Cc1c2[n-]c(c1C)/C=c1\[n-]/c(c(C)c1C=C)=C\c1[n-]c(c(CCC(=O)O)c1C)C=c1[n-]/c(c(C)c1CCC(=O)O)=C\2.[Sn+4]` [SnPPIX, tin protoporphyrin IX], in data set [3], the “effect on L-NAME-induced increase in blood pressure” value (from here on “effect on L-NAME-induced increase”) is listed as “totally reversed”. In data set [4], the “effect on L-NAME-mediated vasoconstriction / rise in CPP” value is “the effect of hemin was completely reversed”.
For the compound [Fe(SPh)2(H2NCH2CH2NH2)(CO)2], in data set [1], the “MbCO formation / CO release” value is recorded as “No MbCO was detected”. Moreover, in data set [2], the “vasodilatory effect” value is “less evident”; the “% Relaxation, 1st addition” value is on record as 11%; the “% Relaxation, 2nd addition” value is given as 24.6%; the “% Relaxation, 3rd addition” value turned out to be 29.3%.
For [Ru(CO)2(DMSO)2Cl2], the “MbCO formation / CO release” value in data set [1] is listed as “released CO”. In data set [2], the “vasodilatory effect” value is “produced vasodilatation although the effect was less pronounced compared to [Ru(CO)3Cl2]2”; the “% Relaxation, 1st addition” value came to 1.6%; the “% Relaxation, 2nd addition” value came out at 16%; the “% Relaxation, 3rd addition” value turned out to be 35%.
As for `O.[Cl][Ru]([Cl])[Cl]` [RuCl3, ruthenium(III) chloride hydrate, reference compound], the “decrease in cell viability over time” value in data set [5] (equivalent molar concentrations of ruthenium) is given as “did not cause any appreciable decrease in cell viability”.
On to `[C-]#[O+].[C-]#[O+].[C-]#[O+].[C-]#[O+].[C-]#[O+].[C-]#[O+].[Cl][Ru][Cl].[Cl][Ru][Cl]` [[Ru(CO)3Cl2]2, tricarbonyldichlororuthenium (II) dimer], for which the cell viability entry in data set [5] (3 h exposure followed by additional 21 h incubation in complete medium) is “well preserved”. In data set [5] (3 h treatment, 0-420 μM final concentration), the cytotoxicity entry is given as “did not promote any detectable cytotoxicity”. Besides, the “loss in cell viability” value in data set [5] (prolonged exposure (24 h), very high concentrations (>400 μM)) is listed as more than 50%. For the same compound, the “moles of CO liberated for each mole of compound” value in data set [1] (9.7 mM DMSO stock, 2 to 32 μl added to 1 ml deoxy-Mb 66 μM, linear regression of MbCO saturation curve) is “approximately 0.7 moles”. In addition, the “MbCO formation / CO release” value in data set [1] was “released CO”. Moreover, the “extent of relaxation after the first addition, more than control” value in data set [2] (222 μM final concentration) was determined as 45%. In addition, the “phenylephrine-induced contraction after extensive washing” value in data set [2] (after extensive washing, restored in control but not in treated vessels) is “produces long-lasting effects”. Besides, in data set [2], the “vasodilatory effect” value was “rapid and significant vasodilatation”; the “% Relaxation, 1st addition” value was 49.9 ± 2.7 %; the “% Relaxation, 2nd addition” value is reported as 66.2 ± 3.2 %; the “% Relaxation, 3rd addition” value was found to be 74.1 ± 4.1 %. The “effect on L-NAME-induced increase” value in data set [3] is “markedly suppressed”.
With [Ru(CO)3Cl2(cytosine)], the “MbCO formation / CO release” value in data set [1] is on record as “released CO”. In addition, in data set [2], the “vasodilatory effect” value is recorded as “did not demonstrate any effect”; the “% Relaxation, 1st addition” value is on record as 3.2%; the “% Relaxation, 2nd addition” value is given as 10.3%; the “% Relaxation, 3rd addition” value is on record as 12.6%.
On to `COC(=O)[C@@H](N)CCCNC(=N)N[N+](=O)[O-]` [L-NAME, N^G-nitro-L-arginine methyl ester], for which the “effect on L-NAME-induced increase” value in data set [3] is “rapid and significant increase in blood pressure”. For the same compound, the “maximum increase in CPP” value in data set [4] (L-NAME 25 μM, after 30 min) was determined as 3 fold.
Consider `CS(C)=O.CS(C)=O.CS(C)=O.CS(C)=O.[Cl][Ru][Cl]` [Cis-RuCl2(DMSO)4, reference compound], for which, in data set [6] (10, 30 or 60 μmoles·kg^−1), the “effects on HR or MAP (in words)” value is given as “no significant effects on either HR or MAP”. Further, the “marginal increase in MAP during the administration of each bolus” value in data set [6] (believed to be a volume effect, also seen with saline) was 5.5±1 mmHg. In addition, in data set [6] (setting [7]), the “HR, 10 μmol.kg^−1” value was determined as 255 ± 6 bpm and the “MAP, 10 μmol.kg^−1” value worked out at 82 ± 4 mmHg. Moreover, in data set [6] (setting [8]), the “HR, 30 μmol.kg^−1” value was determined as 256 ± 8 bpm and the “MAP, 30 μmol.kg^−1” value was 79 ± 5 mmHg. In data set [6], the “HR, 60 μmol.kg^−1” value is reported as 256±9 bpm; the “MAP, 60 μmol.kg^−1” value was determined as 81±4 mmHg; the “HR, Baseline” value is 257±7 bpm; the “MAP, Baseline” value came to 80±2 mmHg. In data set [6] (listed as Cts-RuCl2(DMSO)4), the “HR, 60 μmol.kg^−1” value is on record as 256 ± 9 bpm; the “MAP, 60 μmol.kg^−1” value amounted to 81± 4 mmHg; the “HR, Baseline” value is listed as 257 ± 7 bpm; the “MAP, Baseline” value is listed as 80 ± 2 mmHg.
On to manganese chloride, for which the “effect on L-NAME-mediated vasoconstriction / rise in CPP” value in data set [4] is recorded as “had no effect on myocardial CPP”.
